The values that follow come from US20110091570A1, “Compositions and Devices for Antisepsis and Anticoagulation” (priority 2008, published 2011).

One data set has as its system infected injuries. Conditions: applied intravenously [Ref. 1]; cited from earlier work.
The subject of a further data set is Antithrombin III. Nature of the data set: Antithrombin III in citrate blood. Type of data set: biochemical, human. To be noted: Example 7, 0.25 IE heparin. As for the experimental part:
(§1) Whole blood was taken from 11 volunteers and enriched with trisodium citrate (0.3 mL of a 0.106 molar solution per 3 mL whole blood) (S-Monovette®, Sarstedt, Nümbrecht, Germany). Commercial coagulation tests (as described in Example 6) were performed with the following samples: […]

A further data set deals with T1, Fibrinogen (Homo sapiens, UniProt P02671+P02675+P02679).
T1 construct: from tissue; host or cells: citrated whole blood of volunteers
T1 sequence (P02671 20-629 limits assumed): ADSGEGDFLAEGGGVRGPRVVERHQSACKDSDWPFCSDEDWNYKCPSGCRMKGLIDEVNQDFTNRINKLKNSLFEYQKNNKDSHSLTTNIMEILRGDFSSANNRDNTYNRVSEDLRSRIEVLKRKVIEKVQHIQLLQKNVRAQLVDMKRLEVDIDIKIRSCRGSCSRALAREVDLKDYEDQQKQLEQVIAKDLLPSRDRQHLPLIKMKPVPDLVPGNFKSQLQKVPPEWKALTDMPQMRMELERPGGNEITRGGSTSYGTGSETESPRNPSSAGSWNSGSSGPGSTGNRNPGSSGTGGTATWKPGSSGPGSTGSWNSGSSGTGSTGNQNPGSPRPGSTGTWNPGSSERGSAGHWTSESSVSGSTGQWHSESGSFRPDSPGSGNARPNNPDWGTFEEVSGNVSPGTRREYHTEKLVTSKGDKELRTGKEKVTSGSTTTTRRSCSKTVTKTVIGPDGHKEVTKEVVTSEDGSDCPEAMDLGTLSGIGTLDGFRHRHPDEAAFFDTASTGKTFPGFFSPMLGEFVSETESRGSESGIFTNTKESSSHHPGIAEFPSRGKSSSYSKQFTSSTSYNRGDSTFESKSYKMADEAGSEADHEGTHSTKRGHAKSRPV
T1 sequence (P02675 31-491): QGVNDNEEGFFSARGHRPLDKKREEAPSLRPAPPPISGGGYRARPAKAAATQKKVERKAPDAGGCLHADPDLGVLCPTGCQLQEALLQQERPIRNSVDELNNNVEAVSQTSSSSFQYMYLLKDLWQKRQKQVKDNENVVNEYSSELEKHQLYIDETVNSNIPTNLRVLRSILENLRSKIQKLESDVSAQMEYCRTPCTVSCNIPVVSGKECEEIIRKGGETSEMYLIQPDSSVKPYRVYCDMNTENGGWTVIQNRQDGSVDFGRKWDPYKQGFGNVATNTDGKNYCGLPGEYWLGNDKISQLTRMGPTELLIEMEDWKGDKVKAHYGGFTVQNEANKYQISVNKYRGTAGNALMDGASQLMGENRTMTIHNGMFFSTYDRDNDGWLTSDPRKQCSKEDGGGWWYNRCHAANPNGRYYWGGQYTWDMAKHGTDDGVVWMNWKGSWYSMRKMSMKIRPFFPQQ
T1 sequence (P02679 27-453): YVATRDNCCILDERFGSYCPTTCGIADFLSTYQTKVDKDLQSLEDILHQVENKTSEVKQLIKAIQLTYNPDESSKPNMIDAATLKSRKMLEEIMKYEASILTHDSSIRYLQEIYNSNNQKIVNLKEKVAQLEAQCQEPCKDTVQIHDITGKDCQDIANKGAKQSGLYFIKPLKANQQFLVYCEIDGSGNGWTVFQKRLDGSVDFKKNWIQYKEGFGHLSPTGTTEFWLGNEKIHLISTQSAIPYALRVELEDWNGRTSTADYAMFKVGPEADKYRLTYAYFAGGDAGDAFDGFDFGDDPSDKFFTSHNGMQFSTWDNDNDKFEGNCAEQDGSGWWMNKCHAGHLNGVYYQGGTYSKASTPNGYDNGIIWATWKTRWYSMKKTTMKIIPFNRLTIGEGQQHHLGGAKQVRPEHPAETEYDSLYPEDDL
Nature of the data set: Fibrinogen, Multifibren U test. To be noted: Example 7, 0.25 IE heparin. In kind it is biochemical. How it is done: (§2) Whole blood was taken from a single volunteer and enriched with trisodium citrate (0.3 mL of a 0.106 molar solution per 3 mL whole blood) (S-Monovette®, Sarstedt, Nümbrecht, Germany). Portions of 1.8 mL citrate blood were mixed with 0.2 mL NCT in 0.9% saline. The following final (after dilution in blood) NCT concentrations were tested separately: 1% (55 mM); 0.5% (27.5 mM); 0.25% (13.75 mM); 0.1% (5.5 mM); 0.05% (2.75 mM); 0.025% (1.375 mM); and 0.01% (0.55 mM). A control without NCT was performed in parallel. The following commercial coagulation tests were performed according to the prescription of the manufacturer: prothrombin time (PT) was determined using Thromborel® S test (Dade Behring GmbH, Marburg, Germany), activated partial thromboplastin time (aPTT) was determined using Pathromtin* SL test (Dade Behring GmbH, Marburg, Germany); thrombin time (TT) was determined using BC Thrombin Reagent test (Dade Behring GmbH, Marburg, Germany); and fibrinogen was determined using Multifibren* U test (Dade Behring GmbH, Marburg, Germany).
as §1

Data set [1] concerns citrate blood. Kind of data set: Thrombin time (TT), BC Thrombin Reagent test. In kind it is biochemical, human. Conditions: Example 7, 0.25 IE heparin. How it is done: (§3) Whole blood was taken from volunteers and enriched with trisodium citrate (0.3 mL of a 0.106 molar solution per 3 mL whole blood) (S-Monovette®, Sarstedt, Nümbrecht, Germany). Routine coagulation tests were performed on the following samples:
(§4) The following commercial coagulation tests were performed according to the prescription of the manufacturer: prothrombin time (PT) was determined using Thromborel® S test (Dade Behring GmbH, Marburg, Germany); activated partial thromboplastin time (aPTT) was determined using Pathromtin* SL test (Dade Behring GmbH, Marburg, Germany); and thrombin time (TT) was determined using BC Thrombin Reagent test (Dade Behring GmbH, Marburg, Germany).
as §2, §1

The next data set relates to D-Dimer. Kind of data set: D-Dimer in citrate blood. In kind it is biochemical, human. Conditions: Example 7, 0.25 IE heparin. How it is done: as §1
The test system of data set [2] is citrate blood. Nature of the data set: Prothrombin time (PT), Thromborel S test. In kind it is biochemical, human. Conditions: Example 7, 0.25 IE heparin. How it is done: as §3, §4, §2, §1
The subject of data set [3] is citrate blood. Nature of the data set: Activated partial thromboplastin time (aPTT), Pathromtin SL test. In kind it is biochemical, human. As for the experimental part:
as §3, §4, §2, §1

Data set [4] concerns citrate blood. Kind of data set: International normalized ratio (INR). Conditions: Example 7, 0.25 IE heparin. In kind it is biochemical, human. How it is done:
as §1

Several values for one entry are separate records, joined by “and”; a condition that tells them apart may be missing. Identical values can stand only once.

Consider `Cc1ccc(S(=O)(=O)[N-]Cl)cc1.[Na+]` [chloramine T], for which the “side effects of intravenous application” value in the data set on infected injuries is “severe side effects such as pericardial and lung edema”.

With heparin [reference compound], the “Antithrombin III” value in the data set on Antithrombin III (individual subjects 1-11) is 93% and 79% and 99% and 83% (2×) and 81% (2×) and 88% and 113% and 75% and 94%. The “Antithrombin III, mean value” with Antithrombin III (mean of 11 subjects) is on record as 88.1%. For the same molecule, the Fibrinogen on Fibrinogen (individual subjects 1-11) is 214 mg/dL and 155 mg/dL and 313 mg/dL and 153 mg/dL and 234 mg/dL and 236 mg/dL and 379 mg/dL and 309 mg/dL and 259 mg/dL and 283 mg/dL and 249 mg/dL. For the same molecule, the “Fibrinogen, mean value” at Fibrinogen (mean of 11 subjects) was 253.1 mg/dL. Besides, the “Thrombin time (TT)” value with citrate blood [1] (individual subjects) is 400 s. In addition, in the data set on citrate blood [1] (mean of 11 subjects), the “Thrombin time (TT), mean value” turned out to be 400.0 s. The D-Dimer in the data set on D-Dimer (individual subjects 1-11) is 217 µg/L and 199 µg/L and 353 µg/L and 146 µg/L and 76 µg/L and 183 µg/L and 285 µg/L and 159 µg/L and 150 µg/L and 203 µg/L and 157 µg/L. Further, the “D-Dimer, mean value” in the data set with D-Dimer (mean of 11 subjects) is 193.5 µg/L. Also, the “Prothrombin time (PT)” value in the data set with citrate blood [2] (individual subjects 1-11) was 66% and 58% and 89% (2×) and 62% and 74% and 54% and 69% and 78% and 68% and 72%. In addition, the “Prothrombin time (PT), mean value” in the data set on citrate blood [2] (mean of 11 subjects) was 70.8%. For the same molecule, the “activated partial thromboplastin time” value in the data set on citrate blood [3] (Example 5, citrate blood plus 0.25 IE heparin, increased from 36) turned out to be 56 s. In the data set on citrate blood [3] (Example 7, 0.25 IE heparin, individual subjects 1-11), the “Activated partial thromboplastin time (aPTT)” value was 283 s and 187 s and 135 s and 177 s and 375 s and 300 s and 400 s and 216 s and 284 s and 195 s and 169 s. Moreover, the “Activated partial thromboplastin time (aPTT), mean value” with citrate blood [3] (Example 7, 0.25 IE heparin, mean of 11 subjects) turned out to be 247.4 s. Also, the “International normalized ratio (INR)” value with citrate blood [4] (individual subjects 1-11) is 1.2 (6×) and 1.3 (2×) and 1.1 (2×) and 1.4. Moreover, the “International normalized ratio (INR), mean value” with citrate blood [4] (mean of 11 subjects) amounted to 1.2.
